From patent publication US5929112A, “Derivatives of N,N'-di (carboxyalkyl) alkylene di-or triamine” (L'Oreal, priority 1995, dated 1999)
Structures can show the parent of a compound that is named as a salt.

Experiment: Comparative solubility tests in 50 mM acetate buffer pH 5.8
Format: physicochemical
Conditions: aqueous buffer
Text: COMPARATIVE SOLUBILITY TESTS

Row | solubility | SMILES
1 | > 100 mg/mL | COc1cc(CN(CC(=O)O)CC(C)N(CC(=O)O)Cc2cc(OC)c(OC)c(OC)c2)cc(OC)c1OC (centres unmarked) [Example 1, N,N'-bis-(3,4,5-trimethoxybenzyl)-2-methyl ethylenediamine diacetic acid]
2 | < 5 mg/mL | COc1cc(CN(CCN(CC(=O)O)Cc2cc(OC)c(OC)c(OC)c2)CC(=O)O)cc(OC)c1OC [N,N'-bis-(3,4,5-trimethoxybenzyl) ethylenediamine-N,N'-diacetic acid, 2 HCl]
